The results in this text go back to patent US9085527B2, “Fatty acid acylated salicylates and their uses” (Catabasis Pharmaceuticals, Inc., priority 2008, dated 2015).

The test system of one test is NFκB. Kind of test: NFκB-driven luciferase reporter in RAW 264.7 cells challenged with LPS. In kind it is cell-based, mouse. Conditions: read-out: NFκB Inhibitory Activity, IC50 μM. The procedure: RAW 264.7 cells transfected with an NFκB-driven luciferase reporter are plated in 96 well plates. Cells are treated with Vehicle (0.1% ethanol) or test compounds for 2 hours. As a positive control for inhibition of NFκB signaling, 6 wells are treated with 10 μM dexamethasone. Cells are then challenged with 200 ng/mL LPS for 3 hours in the presence of test compounds. A subset of wells treated with vehicle should remain unstimulated with LPS to determine the floor signal of the assay. NFκB driven luciferase activity is developed by addition of BriteLite luciferase kit (Perkin-Elmer) and measured using a Victor V plate reader. NFκB activity (luciferase activity) for each treatment was normalized to Vehicle wells treated with LPS (% NFκB Response). AlamarBlue was used to monitor cell viability to ensure that inhibition of luciferase signal was not a result of compound cytotoxicity.
RAW 264.7 cells stably expressing a 3×NF-κB response element-driven luciferase reporter were seeded into 96 well plates. After 18 hours, cells were pre-treated with compounds of the invention for 2 hours, and then stimulated with LPS (lipopolysaccharide, 200 ng/mL) or vehicle control for 3 h in the presence of the compounds of the invention. A set of six vehicle was left unstimulated with LPS in order to measure the assay floor. AlamarBlue viability dye (Invitrogen) was added to cells simultaneously with the delivery of LPS (final AlamarBlue concentration of 10%). After the 3 h incubation period with LPS, cell viability was measured by reading fluorescence (excitation 550 nm, emission 595 nm) with a Perkin Elmer Victor V plate reader. Then cell media was aspirated from each well. Luciferase signal was then developed by addition of the Britelite Plus reagent (Perkin Elmer). Luciferase activity was measured with the Perkin Elmer Victor V plate reader. NF-κB activity was expressed as a percent of the vehicle control wells (stimulated with LPS). Compounds were tested at 6 dose point titrations in triplicate to determine IC50 values.
(In general: Reporter assays use an easily measured gene product as a stand-in for the process of interest.)

Test [1] concerns TNFα secretion in RAW 264.7 macrophages. The test is described as follows: TNFα release assay in RAW 264.7 macrophages stimulated with LPS. The format is cell-based, mouse.
Protocol: The purpose of this assay is to measure the ability of small molecules to inhibit the secretion of TNFα in cultured macrophages stimulated with lipopolysaccharide (LPS). […] Dexamethasone, a potert agonist of the glucocorticoid receptor is used a positive control for inhibition of TNFα release.
Day 1: Seed RAW 264.7 macrophages into 96 well culture plates. Remove culture media from RAW 264.7 cell growing in a 75 mm^2 tissue culture flask (cells should be at ˜70% confluence) and add 10 mL of warmed complete growth media (DMEM+10% FBS+1× pen/step). The cells are scraped into suspension using a sterile plate scraper and homogenized by pipetting up and down with a 10 mL serological pipette. The cell concentration is determined using a clinical hematoctyometer. Cells are then diluted to 150,000 cells per mL into growth media. […]
Day 2: The test compound sample plate is prepared. […] Add 100 μl of Celltiter-glo reagent to each well of the cell culture plate and afterwards measure the luminescence signal (CPS) of the plate using the Victor 5 plate reader (0.3 second read; 60 second plate shaking prior to read). […]
Use 20 μl of media supernatant per well for TNFα ELISA. […] After addition of stop solution, measure OD 450 nm using the Victor 5 plate reader (0.1 second/well scan). […]
Setting [2] is: Mus musculus, RAW264.7, 200 ng/mL LPS for 3 hours.

Where two headings read alike, the source gives them in different places. A value given as a limit tells only on which side of the number the result lay.

For `CC/C=C\C/C=C\C/C=C\C/C=C\C/C=C\C/C=C\CCC(=O)Nc1ccc(O)c(C(=O)O)c1` [III-1], the IC50 with NFκB (200 ng/mL LPS for 3 hours) was below 200 µM; in test [1] (10 ng/mL LPS, 3 hours, TNFα ELISA, read-out: TNFα Secrection, IC50 μM), 146 µM.
Turning to `CC/C=C\C/C=C\C/C=C\C/C=C\C/C=C\C/C=C\CCC(=O)Oc1ccc(-c2ccc(F)cc2F)cc1C(=O)OCC` [IVc-2, ethyl 4-((4Z,7Z,10Z,13Z,16Z,19Z)-docosa-4,7,10,13,16,19-hexaenoyloxy)-2′,4′-difluorobiphenyl-3-carboxylate], the IC50 in the test with NFκB (setting [2]) is below 200 µM.
`CC/C=C\C/C=C\C/C=C\C/C=C\C/C=C\C/C=C\CCC(=O)Oc1ccccc1C(=O)O` [Ia-1, 2-((4Z,7Z,10Z,13Z,16Z,19Z)-docosa-4,7,10,13,16,19-hexaenoyloxy)benzoic acid]: the IC50 in the test on NFκB (setting [2]) was above 200 µM.
For the molecule `CC/C=C\C/C=C\C/C=C\C/C=C\C/C=C\C/C=C\CCC(=O)NCCCOC(=O)c1ccccc1OC(C)=O` [Ic-1, 3-(4Z,7Z,10Z,13Z,16Z,19Z)-docosa-4,7,10,13,16,19-hexaenamidopropyl 2-acetoxybenzoate], in the test on NFκB (setting [2]), the IC50 was above 200 µM.
Same read-out and setting: the same measure for `CC/C=C\C/C=C\C/C=C\C/C=C\C/C=C\C/C=C\CCC(=O)OC(C)OC(=O)c1ccccc1OC(C)=O` (stereo not drawn) [Ic-12, 1-((4Z,7Z,10Z,13Z,16Z,19Z)-docosa-4,7,10,13,16,19-hexaenoyloxy)ethyl 2-acetoxybenzoate]: below 200 µM; for `CC/C=C\C/C=C\C/C=C\C/C=C\C/C=C\C/C=C\CCC(=O)NCCNC(=O)c1ccccc1O` [Ih-1, N-(2-(4Z,7Z,10Z,13Z,16Z,19Z)-docosa-4,7,10,13,16,19-hexaenamidoethyl)-2-hydroxybenzamide]: below 200 µM.
On the same count and under the same terms, for `CC/C=C\C/C=C\C/C=C\C/C=C\C/C=C\C/C=C\CCC(=O)N1CCN(C(=O)c2ccccc2O)CC1` [Ih-2, (4Z,7Z,10Z,13Z,16Z,19Z)-1-(4-(2-hydroxybenzoyl)piperazin-1-yl)docosa-4,7,10,13,16,19-hexaen-1-one] the value was above 200 µM; for `CC/C=C\C/C=C\C/C=C\C/C=C\C/C=C\C/C=C\CCC(=O)NCCN(C)C(=O)c1ccccc1O` [Ih-3, N-(2-(4Z,7Z,10Z,13Z,16Z,19Z)-docosa-4,7,10,13,16,19-hexaenamidoethyl)-2-hydroxy-N-methylbenzamide], below 200 µM.
Turning to `CC/C=C\C/C=C\C/C=C\C/C=C\C/C=C\C/C=C\CCC(=O)N(C)CCNC(=O)c1ccccc1O` [Ih-4, 2-hydroxy-N-(2-((4Z,7Z,10Z,13Z,16Z,19Z)—N-methyldocosa-4,7,10,13,16,19-hexaenamido)ethyl)benzamide], in the test on NFκB (setting [2]), the IC50 is below 200 µM.
Still for that read-out and setting: the same measure for `CC/C=C\C/C=C\C/C=C\C/C=C\C/C=C\C/C=C\CCC(=O)NCC(C)NC(=O)c1ccccc1O` (stereo not drawn) [Ih-5, N-(1-(4Z,7Z,10Z,13Z,16Z,19Z)-docosa-4,7,10,13,16,19-hexaenamidopropan-2-yl)-2-hydroxybenzamide]: below 200 µM.
On the same count and under the same terms, the same measure for `CC/C=C\C/C=C\C/C=C\C/C=C\C/C=C\C/C=C\CCC(=O)NC(C)CNC(=O)c1ccccc1O` (stereo not drawn) [Ih-6, N-(2-(4Z,7Z,10Z,13Z,16Z,19Z)-docosa-4,7,10,13,16,19-hexaenamidopropyl)-2-hydroxybenzamide]: below 200 µM; for `CC/C=C\C/C=C\C/C=C\C/C=C\C/C=C\C/C=C\CCC(=O)NC(C)C(C)NC(=O)c1ccccc1O` (stereo not drawn) [Ih-7, N-(3-(4Z,7Z,10Z,13Z,16Z,19Z)-docosa-4,7,10,13,16,19-hexaenamidobutan-2-yl)-2-hydroxybenzamide]: below 200 µM; for `CC/C=C\C/C=C\C/C=C\C/C=C\C/C=C\C/C=C\CCC(=O)NCCNC(=O)c1ccc(C(F)(F)F)cc1O` [Ih-8, N-(2-(4Z,7Z,10Z,13Z,16Z,19Z)-docosa-4,7,10,13,16,19-hexaenamidoethyl)-2-hydroxy-4-(trifluoromethyl)benzamide]: above 200 µM.
Same read-out and setting: for `CC/C=C\C/C=C\C/C=C\C/C=C\C/C=C\C/C=C\CCC(=O)NCCNC(=O)c1cc(-c2ccc(F)cc2F)ccc1O` [Ih-9, N-(2-(4Z,7Z,10Z,13Z,16Z,19Z)-docosa-4,7,10,13,16,19-hexaenamidoethyl)-2′,4′-difluoro-4-hydroxybiphenyl-3-carboxamide] the value was below 200 µM.
As for `CC/C=C\C/C=C\C/C=C\C/C=C\C/C=C\CCCC(=O)NCCNC(=O)c1cc(-c2ccc(F)cc2F)ccc1O` [Ih-10, 2′,4′-difluoro-4-hydroxy-N-(2-(5Z,8Z,11Z,14Z,17Z)-icosa-5,8,11,14,17-pentaenamidoethyl)biphenyl-3-carboxamide], in the test with NFκB (setting [2]), the IC50 was below 200 µM.
For the molecule `CC/C=C\C/C=C\C/C=C\C/C=C\C/C=C\C/C=C\CCC(=O)NCCN1C(=O)CC(SC[C@H](NC(=O)c2ccccc2O)C(=O)OC)C1=O` (stereo partly drawn) [Ih-11, (R)-methyl 3-(1-(2-(4Z,7Z,10Z,13Z,16Z,19Z)-docosa-4,7,10,13,16,19-hexaenamidoethyl)-2,5-dioxopyrrolidin-3-ylthio)-2-(2-hydroxybenzamido)propanoate], in the test with NFκB (setting [2]), the IC50 was below 200 µM.
Still for that read-out and setting: for `CC/C=C\C/C=C\C/C=C\C/C=C\C/C=C\CCCC(=O)NCCNC(=O)c1ccccc1O` [Ih-14] the value was below 200 µM; for `CC/C=C\C/C=C\C/C=C\C/C=C\C/C=C\C/C=C\CCC(=O)NC(Cc1ccccc1)C(=O)Oc1ccccc1C(=O)OCC` (stereo not drawn) [Ii-3, ethyl 2-(2-(4Z,7Z,10Z,13Z,16Z,19Z)-docosa-4,7,10,13,16,19-hexaenamido-3-phenylpropanoyloxy)benzoate], below 200 µM; for `CC/C=C\C/C=C\C/C=C\C/C=C\C/C=C\C/C=C\CCC(=O)NC(CC(C)C)C(=O)Oc1ccc(-c2ccc(F)cc2F)cc1C(=O)OCC` (stereo not drawn) [Ii-4, ethyl 4-(2-(4Z,7Z,10Z,13Z,16Z,19Z)-docosa-4,7,10,13,16,19-hexaenamido-4-methylpentanoyloxy)-2′,4′-difluorobiphenyl-3-carboxylate], above 200 µM.
Same read-out and setting: for `CC/C=C\C/C=C\C/C=C\C/C=C\C/C=C\C/C=C\CCC(=O)NC(CC(C)C)C(=O)Oc1cc(C(F)(F)F)ccc1C(=O)OCC` (stereo not drawn) [Ii-5, ethyl 2-(2-(4Z,7Z,10Z,13Z,16Z,19Z)-docosa-4,7,10,13,16,19-hexaenamido-4-methylpentanoyloxy)-4-(trilluoromethyl)benzoate] the value was below 200 µM; for `O=C(O)c1ccccc1O` [SA, salicylic acid, reference compound], above 200 µM; for `CC/C=C\C/C=C\C/C=C\C/C=C\C/C=C\C/C=C\CCC(=O)Oc1cc(C(F)(F)F)ccc1C(=O)OCC` [VIc-3, ethyl 2-((4Z,7Z,10Z,13Z,16Z,19Z)-docosa-4,7,10,13,16,19-hexaenoyloxy)-4-(trilluoromethyl)benzoate], below 200 µM.
Take `O=C(O)c1ccccc1O` [salicylate, Salicylate]: in test [1] (LPS), the “inhibition of the production of TNFα (in words, FIG. 2)” value is “do not appreciably inhibit”.

For orientation: IC50 means the concentration that inhibits the measured activity by half.
